Results taken from the NIST ThermoML archive (doi:10.1021/je800463k).

Experiment: mn = molality of the nth substance listed, in mol/kg
Settings: 101 kPa, Liquid; for electrical conductivity: Frequency=0.001 MHz, Alternating current cell with electrodes; for speed of sound: Frequency=2 MHz; for mass density: Pycnometric method

CC(=O)[O-].CC(=O)[O-].[Mg+2] [magnesium acetate] + CO
Settings	electrical conductivity [S/m]	mass density [kg/m3]	speed of sound [m/s]	viscosity [mPa·s]
273.15 K, m1 = 0.0059	0.0325	–	1185.9	–
273.15 K, m1 = 0.0093	0.055	–	1186.1	–
273.15 K, m1 = 0.014	–	–	–	0.821
273.15 K, m1 = 0.018	0.0621	–	1186.2	0.8229
273.15 K, m1 = 0.0339	0.0796	–	–	0.8417
273.15 K, m1 = 0.053	0.0922	–	1190.2	–
273.15 K, m1 = 0.0646	0.0965	–	–	0.8642
273.15 K, m1 = 0.0855	0.106	–	1190.1	–
273.15 K, m1 = 0.1012	–	–	–	0.9108
273.15 K, m1 = 0.1024	0.1148	–	1194.5	–
273.15 K, m1 = 0.13	–	–	–	0.9308
273.15 K, m1 = 0.1402	0.1289	–	1194.6	0.9493
273.15 K, m1 = 0.1455	0.1307	–	1192.6	–
273.15 K, m1 = 0.17	–	–	–	0.9637
273.15 K, m1 = 0.1837	0.1414	–	1195.3	–
273.15 K, m1 = 0.2003	–	–	–	0.9889
273.15 K, m1 = 0.2192	–	–	1196.7	–
273.15 K, m1 = 0.2422	0.1507	–	1196.9	1.042
273.15 K, m1 = 0.2453	–	–	–	1.036
273.15 K, m1 = 0.2889	0.1565	–	1197.1	1.091
273.15 K, m1 = 0.3042	–	–	1199.6	–
278.15 K, m1 = 0.0059	0.0329	–	1169.1	–
278.15 K, m1 = 0.0093	0.0556	–	1169.4	–
278.15 K, m1 = 0.014	–	–	–	0.7547
278.15 K, m1 = 0.018	0.0627	–	1170	0.7565
278.15 K, m1 = 0.0339	0.0807	–	–	0.7732
278.15 K, m1 = 0.053	0.0937	–	1172.6	–
278.15 K, m1 = 0.0646	0.0989	–	–	0.7927
278.15 K, m1 = 0.0855	0.1084	–	1176.6	–
278.15 K, m1 = 0.1012	–	–	–	0.8332
278.15 K, m1 = 0.1024	0.1174	–	1176.8	–
278.15 K, m1 = 0.13	–	–	–	0.8509
278.15 K, m1 = 0.1402	0.1326	–	1177.7	0.867
278.15 K, m1 = 0.1455	0.135	–	1175	–
278.15 K, m1 = 0.17	–	–	–	0.8812
278.15 K, m1 = 0.1837	0.1448	–	1179.3	–
278.15 K, m1 = 0.2003	–	–	–	0.9025
278.15 K, m1 = 0.2192	–	–	1181	–
278.15 K, m1 = 0.2422	0.153	–	1179.9	0.9469
278.15 K, m1 = 0.2453	–	–	–	0.9437
278.15 K, m1 = 0.2889	0.1605	–	1180.9	0.9892
278.15 K, m1 = 0.3042	–	–	1181.7	–
283.15 K, m1 = 0.0059	0.0334	–	1152.8	–
283.15 K, m1 = 0.0093	0.0562	–	1153.2	–
283.15 K, m1 = 0.014	–	–	–	0.6979
283.15 K, m1 = 0.018	0.0634	–	1154.7	0.6998
283.15 K, m1 = 0.0339	0.0818	–	–	0.7143
283.15 K, m1 = 0.053	0.0954	–	1156.3	–
283.15 K, m1 = 0.0646	0.1008	–	–	0.7304
283.15 K, m1 = 0.0855	0.1089	–	1156.5	–
283.15 K, m1 = 0.1012	–	–	–	0.7669
283.15 K, m1 = 0.1024	0.1198	–	1160.3	–
283.15 K, m1 = 0.13	–	–	–	0.7824
283.15 K, m1 = 0.1402	0.1355	–	1160.4	0.7965
283.15 K, m1 = 0.1455	0.1388	–	1158.5	–
283.15 K, m1 = 0.17	–	–	–	0.8105
283.15 K, m1 = 0.1837	0.1465	–	1161.7	–
283.15 K, m1 = 0.2003	–	–	–	0.8289
283.15 K, m1 = 0.2192	–	–	1162.8	–
283.15 K, m1 = 0.2422	0.1656	–	1163.1	0.8664
283.15 K, m1 = 0.2453	–	–	–	0.8643
283.15 K, m1 = 0.2889	0.1642	–	1163.5	0.8961
283.15 K, m1 = 0.3042	–	–	1165.8	–
288.15 K, m1 = 0.0059	0.0341	–	1135.7	–
288.15 K, m1 = 0.0093	0.0566	–	1136.1	–
288.15 K, m1 = 0.014	–	–	–	0.6458
288.15 K, m1 = 0.018	0.0642	–	1137.4	0.6478
288.15 K, m1 = 0.0339	0.0831	–	–	0.6606
288.15 K, m1 = 0.053	0.0969	–	1138.1	–
288.15 K, m1 = 0.0646	0.1033	–	–	0.6743
288.15 K, m1 = 0.0855	0.1114	–	1139.7	–
288.15 K, m1 = 0.1012	–	–	–	0.7063
288.15 K, m1 = 0.1024	0.1227	–	1142.7	–
288.15 K, m1 = 0.13	–	–	–	0.7206
288.15 K, m1 = 0.1402	0.139	–	1144.3	0.7286
288.15 K, m1 = 0.1455	0.1428	–	1141.6	–
288.15 K, m1 = 0.17	–	–	–	0.7465
288.15 K, m1 = 0.1837	0.1496	–	1143.8	–
288.15 K, m1 = 0.2003	–	–	–	0.7639
288.15 K, m1 = 0.2192	–	–	1147.5	–
288.15 K, m1 = 0.2422	0.1673	–	1146.4	0.7865
288.15 K, m1 = 0.2453	–	–	–	0.7929
288.15 K, m1 = 0.2889	0.1692	–	1147	0.8205
288.15 K, m1 = 0.3042	–	–	1149.4	–
293.15 K, m1 = 0.0059	0.0349	–	1119	–
293.15 K, m1 = 0.0093	0.0575	–	1118.9	–
293.15 K, m1 = 0.014	–	–	–	0.6
293.15 K, m1 = 0.018	0.0649	–	1120.9	0.6022
293.15 K, m1 = 0.0339	0.0843	–	–	0.6132
293.15 K, m1 = 0.053	0.0985	–	1121.1	–
293.15 K, m1 = 0.0646	0.1055	–	–	0.6249
293.15 K, m1 = 0.0855	0.1149	–	1122.8	–
293.15 K, m1 = 0.1012	–	–	–	0.6535
293.15 K, m1 = 0.1024	0.1258	–	1126	–
293.15 K, m1 = 0.13	–	–	–	0.666
293.15 K, m1 = 0.1402	0.1426	–	1128.4	0.6731
293.15 K, m1 = 0.1455	0.1463	–	1124.4	–
293.15 K, m1 = 0.17	–	–	–	0.6902
293.15 K, m1 = 0.1837	0.1536	–	1127.3	–
293.15 K, m1 = 0.2003	–	–	–	0.7039
293.15 K, m1 = 0.2192	–	–	1130.4	–
293.15 K, m1 = 0.2422	0.1693	–	1129.6	0.7255
293.15 K, m1 = 0.2453	–	–	–	0.7305
293.15 K, m1 = 0.2889	0.1735	–	1131.7	0.7548
293.15 K, m1 = 0.3042	–	–	1132.6	–
296.65 K, m1 = 0.1112	–	798.51	–	–
297.55 K, m1 = 0.2192	–	803.53	–	–
298.15 K, m1 = 0.0059	0.0355	–	1102.5	–
298.15 K, m1 = 0.0093	0.058	–	1102	–
298.15 K, m1 = 0.014	–	–	–	0.5583
298.15 K, m1 = 0.018	0.0656	–	1103.5	0.5605
298.15 K, m1 = 0.0339	0.0856	–	–	0.5703
298.15 K, m1 = 0.053	0.1	–	1104.6	–
298.15 K, m1 = 0.0646	0.108	–	–	0.5802
298.15 K, m1 = 0.0855	0.1183	–	1106.7	–
298.15 K, m1 = 0.1012	–	–	–	0.6059
298.15 K, m1 = 0.1024	0.1284	–	1109.8	–
298.15 K, m1 = 0.13	–	–	–	0.617
298.15 K, m1 = 0.1402	0.1458	–	1111.6	0.6234
298.15 K, m1 = 0.1455	0.1485	–	1108.4	–
298.15 K, m1 = 0.17	–	–	–	0.6396
298.15 K, m1 = 0.1837	0.1578	–	1110.9	–
298.15 K, m1 = 0.2003	–	–	–	0.6529
298.15 K, m1 = 0.2192	–	–	1113.4	–
298.15 K, m1 = 0.2422	0.1717	–	1112.7	0.6701
298.15 K, m1 = 0.2453	–	–	–	0.6746
298.15 K, m1 = 0.2889	0.1776	–	1115.2	0.6956
298.15 K, m1 = 0.3042	–	–	1116.1	–
298.5 K, m1 = 0.0646	–	793.38	–	–
299 K, m1 = 0.0339	–	790.63	–	–
299.1 K, m1 = 0.014	–	788.94	–	–
299.25 K, m1 = 0.1798	–	800.6	–	–
299.3 K, m1 = 0.2192	–	801.81	–	–
299.35 K, m1 = 0.1112	–	795.95	–	–
